For the data set, the system named is CCRIS mutagenicity, Ames/micronucleus/aberration tests. The data set is described as follows: CCRIS mutagenicity studies.
Setting [1] is: Test System: AMES SALMONELLA TYPHIMURIUM, Strain/Indicator: TA97, Metabolic Activation: NONE, Method: STANDARD PLATE.
Setting [2] is: Test System: AMES SALMONELLA TYPHIMURIUM, Strain/Indicator: TA98, Metabolic Activation: NONE, Method: PREINCUBATION
The mark [3] stands for this setting: Test System: AMES SALMONELLA TYPHIMURIUM, Strain/Indicator: TA98, Metabolic Activation: NONE, Method: STANDARD PLATE.
[4] abbreviates: Test System: AMES SALMONELLA TYPHIMURIUM, Strain/Indicator: TA100, Metabolic Activation: NONE, Method: PREINCUBATION
The mark [5] stands for this setting: Test System: AMES SALMONELLA TYPHIMURIUM, Strain/Indicator: TA100, Metabolic Activation: NONE, Method: STANDARD PLATE.
Where [6] appears, read: Test System: AMES SALMONELLA TYPHIMURIUM, Strain/Indicator: TA1535, Metabolic Activation: NONE, Method: PREINCUBATION
The mark [7] stands for this setting: Test System: AMES SALMONELLA TYPHIMURIUM, Strain/Indicator: TA1535, Metabolic Activation: NONE, Method: STANDARD PLATE.
[8] abbreviates: Test System: AMES SALMONELLA TYPHIMURIUM, Strain/Indicator: TA1537, Metabolic Activation: NONE, Method: PREINCUBATION
Setting [9] is: Test System: AMES SALMONELLA TYPHIMURIUM, Strain/Indicator: TA1537, Metabolic Activation: NONE, Method: STANDARD PLATE.

The source made the active and inactive calls. No rule for the calls is given here.

Turning to `CC(C)CC(C)Nc1ccc(Nc2ccccc2)cc1` (centres undefined), the mutagenic call by setting is: (Test System: AMES SALMONELLA TYPHIMURIUM, Strain/Indicator: TA97, Metabolic Activation: MOUSE, LIVER, S-9, DELOR 103, Method: STANDARD PLATE) “inactive; negative”; under setting [1], “inactive; negative”; (Test System: AMES SALMONELLA TYPHIMURIUM, Strain/Indicator: TA98, Metabolic Activation: HAMSTER, LIVER, S-9, AROCLOR 1254 (10%), Method: PREINCUBATION) “inactive; negative”; (Test System: AMES SALMONELLA TYPHIMURIUM, Strain/Indicator: TA98, Metabolic Activation: MOUSE, LIVER, S-9, DELOR 103, Method: STANDARD PLATE) “inactive; negative”; under setting [2], “inactive; negative”; under setting [3], “inactive; negative”. Further, the mutagenic call (Test System: AMES SALMONELLA TYPHIMURIUM, Strain/Indicator: TA98, Metabolic Activation: RAT, LIVER, S-9, AROCLOR 1254 (10%), Method: PREINCUBATION) was “inactive; negative”; the mutagenic call (Test System: AMES SALMONELLA TYPHIMURIUM, Strain/Indicator: TA100, Metabolic Activation: HAMSTER, LIVER, S-9, AROCLOR 1254 (10%), Method: PREINCUBATION) is “inactive; negative”; the mutagenic call (Test System: AMES SALMONELLA TYPHIMURIUM, Strain/Indicator: TA100, Metabolic Activation: MOUSE, LIVER, S-9, DELOR 103, Method: STANDARD PLATE) was “inactive; negative”; the mutagenic call under setting [4] is “inactive; negative”; the mutagenic call under setting [5] is “inactive; negative”; the mutagenic call (Test System: AMES SALMONELLA TYPHIMURIUM, Strain/Indicator: TA100, Metabolic Activation: RAT, LIVER, S-9, AROCLOR 1254 (10%), Method: PREINCUBATION) was “inactive; negative”. For the same molecule, the mutagenic call was “inactive; negative” (Test System: AMES SALMONELLA TYPHIMURIUM, Strain/Indicator: TA1535, Metabolic Activation: HAMSTER, LIVER, S-9, AROCLOR 1254 (10%), Method: PREINCUBATION); “inactive; negative” under setting [6]; “inactive; negative” under setting [7]; “inactive; negative” (Test System: AMES SALMONELLA TYPHIMURIUM, Strain/Indicator: TA1535, Metabolic Activation: RAT, LIVER, S-9, AROCLOR 1254 (10%), Method: PREINCUBATION); “inactive; negative” (Test System: AMES SALMONELLA TYPHIMURIUM, Strain/Indicator: TA1537, Metabolic Activation: HAMSTER, LIVER, S-9, AROCLOR 1254 (10%), Method: PREINCUBATION); “inactive; negative” under setting [8]. Also, the mutagenic call runs as follows: (Test System: AMES SALMONELLA TYPHIMURIUM, Strain/Indicator: TA1537, Metabolic Activation: RAT, LIVER, S-9, AROCLOR 1254 (10%), Method: PREINCUBATION) “inactive; negative”; (Test System: AMES SALMONELLA TYPHIMURIUM, Strain/Indicator: TA1538, Metabolic Activation: NONE, Method: STANDARD PLATE) “inactive; negative”.
`Cc1cc(O)c2c(c1)C(=O)c1c(c(O)cc(O)c1-c1c(O)cc(O)c3c1C(=O)c1cc(C)cc(O)c1C3=O)C2=O`: the mutagenic call was “inactive; negative” under setting [3]; “inactive; negative” (Test System: AMES SALMONELLA TYPHIMURIUM, Strain/Indicator: TA98, Metabolic Activation: RAT, LIVER, S-9, AROCLOR 1254, Method: STANDARD PLATE); “inactive; negative” under setting [5]; “inactive; negative” (Test System: AMES SALMONELLA TYPHIMURIUM, Strain/Indicator: TA100, Metabolic Activation: RAT, LIVER, S-9, AROCLOR 1254, Method: STANDARD PLATE); “inactive; negative” under setting [9]; “inactive; negative” (Test System: AMES SALMONELLA TYPHIMURIUM, Strain/Indicator: TA1537, Metabolic Activation: RAT, LIVER, S-9, AROCLOR 1254, Method: STANDARD PLATE).
Turning to `CCOc1ccc([N+](=O)[O-])cc1`, the mutagenic call is “active; positive” under setting [2]; “inactive; negative” (Test System: AMES SALMONELLA TYPHIMURIUM, Strain/Indicator: TA100(NR), Metabolic Activation: RAT, LIVER, S-9, PCB, Method: PREINCUBATION); “inactive; negative” under setting [6]; “inactive; negative” under setting [8]; “inactive; negative” (Test System: AMES SALMONELLA TYPHIMURIUM, Strain/Indicator: TA1538, Metabolic Activation: NONE, Method: PREINCUBATION); “active; positive” (Test System: AMES SALMONELLA TYPHIMURIUM, Strain/Indicator: YG1026, Metabolic Activation: NONE, Method: PREINCUBATION). Besides, the mutagenic call is “active; positive” (Test System: AMES SALMONELLA TYPHIMURIUM, Strain/Indicator: YG1029, Metabolic Activation: NONE, Method: PREINCUBATION) and “active; positive” (Test System: AMES SALMONELLA TYPHIMURIUM, Strain/Indicator: YG1042, Metabolic Activation: NONE, Method: PREINCUBATION).
With `CCOc1ccc(C(C)(C)C)cc1NC(=O)C(=O)Nc1ccccc1CC`, the mutagenic call reads like this: under setting [1], “inactive; negative”; (Test System: AMES SALMONELLA TYPHIMURIUM, Strain/Indicator: TA97, Metabolic Activation: S-9, Method: STANDARD PLATE) “inactive; negative”; under setting [3], “inactive; negative”; (Test System: AMES SALMONELLA TYPHIMURIUM, Strain/Indicator: TA98, Metabolic Activation: S-9, Method: STANDARD PLATE) “inactive; negative”; under setting [5], “inactive; negative”; (Test System: AMES SALMONELLA TYPHIMURIUM, Strain/Indicator: TA100, Metabolic Activation: S-9, Method: STANDARD PLATE) “inactive; negative”. Further, the mutagenic call is, setting by setting: (Test System: AMES SALMONELLA TYPHIMURIUM, Strain/Indicator: TA102, Metabolic Activation: NONE, Method: STANDARD PLATE) “inactive; negative”; (Test System: AMES SALMONELLA TYPHIMURIUM, Strain/Indicator: TA102, Metabolic Activation: S-9, Method: STANDARD PLATE) “inactive; negative”; (Test System: E.COLI, Strain/Indicator: WP2 (PKM101), Metabolic Activation: NONE, Method: STANDARD PLATE) “inactive; negative”; (Test System: E.COLI, Strain/Indicator: WP2 (PKM101), Metabolic Activation: S-9, Method: STANDARD PLATE) “inactive; negative”.
Regarding `O=C(O)C(=O)Nc1cccc(-c2nn[nH]n2)c1`, the mutagenic call is, setting by setting: under setting [3], “inactive; negative”; (Test System: AMES SALMONELLA TYPHIMURIUM, Strain/Indicator: TA98, Metabolic Activation: RAT, LIVER, S-9, PHENOBARBITAL AND 5,6-BENZOFLAVONE, Method: STANDARD PLATE) “inactive; negative”; under setting [5], “inactive; negative”; (Test System: AMES SALMONELLA TYPHIMURIUM, Strain/Indicator: TA100, Metabolic Activation: RAT, LIVER, S-9, PHENOBARBITAL AND 5,6-BENZOFLAVONE, Method: STANDARD PLATE) “inactive; negative”; under setting [7], “inactive; negative”; (Test System: AMES SALMONELLA TYPHIMURIUM, Strain/Indicator: TA1535, Metabolic Activation: RAT, LIVER, S-9, PHENOBARBITAL AND 5,6-BENZOFLAVONE, Method: STANDARD PLATE) “inactive; negative”. Further, the mutagenic call by setting is: under setting [9], “inactive; negative”; (Test System: AMES SALMONELLA TYPHIMURIUM, Strain/Indicator: TA1537, Metabolic Activation: RAT, LIVER, S-9, PHENOBARBITAL AND 5,6-BENZOFLAVONE, Method: STANDARD PLATE) “inactive; negative”; (Test System: E. COLI, Strain/Indicator: WP2 UVRA, Metabolic Activation: NONE, Method: STANDARD PLATE) “inactive; negative”.
Regarding `O=C1c2ccccc2C(=O)c2cc(CO)ccc21`, the mutagenic call runs as follows: under setting [2], “inactive; negative”; (Test System: AMES SALMONELLA TYPHIMURIUM, Strain/Indicator: TA98, Metabolic Activation: RAT, LIVER, S-9, PCB, Method: PREINCUBATION) “inactive; negative”; under setting [4], “inactive; negative”; (Test System: AMES SALMONELLA TYPHIMURIUM, Strain/Indicator: TA100, Metabolic Activation: RAT, LIVER, S-9, PCB, Method: PREINCUBATION) “inactive; negative”; (Test System: UDS RODENT HEPATOCYTES, Strain/Indicator: THY INCORP (NON-S-PHASE), Metabolic Activation: NONE, Method: AUTORADIOGRAPHY) “inactive; negative”; (Test System: UDS RODENT HEPATOCYTES, Strain/Indicator: THY INCORP (NON-S-PHASE), Metabolic Activation: PHENOBARBITAL, Method: AUTORADIOGRAPHY) “active; positive”.

These data come from PubChem BioAssay AID1259407 (Chemical Carcinogenesis Research Information System (CCRIS), 2018).
